Assay results taken from the NIST ThermoML archive (doi:10.1016/j.fluid.2017.03.021).

Legend:
[1] = molar heat capacity at constant pressure; details: 101.33 kPa, Liquid, DSC
[2] = 101.33 kPa, Liquid; for speed of sound: Sing-around technique in a fixed-path interferometer; for mass density: Vibrating tube method

CCCCn1cc[n+](CCC(C)C)c1.O=S(=O)([N-]S(=O)(=O)C(F)(F)F)C(F)(F)F
Details | mass density, [2] [kg/m3] | molar heat capacity at constant pressure, [1] [J/K/mol] | speed of sound, [2] [m/s]
287.15 K | 1328.1 | – | 1243.8
289.15 K | 1326.3 | – | 1238.9
291.15 K | 1324.4 | – | 1234.1
293.15 K | 1322.6 | 681.82 | 1229.3
294.15 K | – | 682.92 | –
295.15 K | 1320.8 | 683.63 | 1224.5
296.15 K | – | 684.34 | –
297.15 K | 1319.1 | 685.11 | 1219.8
298.15 K | – | 685.77 | –
299.15 K | 1317.3 | 686.48 | 1215.1
300.15 K | – | 687.15 | –
301.15 K | 1315.5 | 687.82 | 1210.4
302.15 K | – | 688.48 | –
303.15 K | 1313.7 | 689.15 | 1205.8
304.15 K | – | 689.91 | –
305.15 K | 1311.9 | 690.67 | 1201.2
306.15 K | – | 691.33 | –
307.15 K | 1310.2 | 692.19 | 1196.6
308.15 K | – | 692.95 | –
309.15 K | 1308.4 | 693.62 | 1192
310.15 K | – | 694.42 | –
311.15 K | 1306.6 | 695.14 | 1187.5
312.15 K | – | 695.9 | –
313.15 K | 1304.9 | 696.66 | 1183
314.15 K | – | 697.47 | –
315.15 K | 1303.1 | 698.23 | 1178.4
316.15 K | – | 698.94 | –
317.15 K | 1301.3 | 699.65 | 1173.9
318.15 K | – | 700.56 | –
319.15 K | 1299.6 | 701.27 | 1169.5
320.15 K | – | 702.08 | –
321.15 K | 1297.8 | 702.84 | 1165
322.15 K | – | 703.7 | –
323.15 K | 1296.1 | 704.55 | 1160.6
324.15 K | – | 705.36 | –
325.15 K | 1294.3 | 706.26 | 1156.2
326.15 K | – | 707.07 | –
327.15 K | 1292.6 | 707.93 | 1151.8
328.15 K | – | 708.78 | –
329.15 K | 1290.8 | 709.59 | 1147.4
330.15 K | – | 710.4 | –
331.15 K | 1289.1 | 711.16 | 1143
332.15 K | – | 711.97 | –
333.15 K | 1287.4 | 712.68 | 1138.7
334.15 K | – | 713.49 | –
335.15 K | 1285.6 | 714.25 | 1134.3
336.15 K | – | 714.92 | –
337.15 K | 1283.9 | 715.82 | 1130
338.15 K | – | 716.58 | –
339.15 K | 1282.2 | 717.34 | 1125.7
340.15 K | – | 718.15 | –
341.15 K | 1280.4 | 718.86 | 1121.5
342.15 K | – | 719.53 | –
343.15 K | 1278.7 | 720.2 | 1117.3
344.15 K | – | 720.81 | –
345.15 K | – | 721.43 | –
346.15 K | – | 722.24 | –
347.15 K | – | 723.05 | –
348.15 K | – | 724.28 | –
